Data from US10065972B2, “Bicyclic or tricyclic heterocyclic compound” (MITSUBISHI TANABE PHARMA CORPORATION, priority 2014, dated 2018).

Target: human recombinant KAT-II (Homo sapiens (Human), UniProt Q8N5Z0)
Experiment: KAT-II inhibitory test
Type: biochemical
Details: 3.0 μmol/L kynurenine, 37° C., 1 hr, pH 8.0; kynurenic acid quantified by HPLC
Experimental: The compounds described in the above-mentioned Examples were used for the KAT-II inhibitory test.
Preparation of Human Recombinant KAT-II
Human recombinant KAT-II was prepared as follows.
His tag and maltose binding protein tag were added to the N-terminal of a gene encoding human KAT-II (Genbank accession number: AF481738.1), and the obtained gene was incorporated into pET32 (Merck Nihon Millipore), which is an Escherichia coli expression vector. Human recombinant KAT-II produced by BL21(DE3) Escherichia coli (Merck Nihon Millipore, 69450) transformed using the plasmid was purified using an amylose resin column (New England Biolabs, #800-21 L).
The inhibitory action of the test compound on human recombinant KAT-II was determined by the following method.
To a reaction mixture (45 μL) containing 3.0 μmol/L kynurenine, 10 μmol/L pyridoxal phosphate, 2.0 ng/μL human recombinant KAT-II, and 150 mmol/L tris(hydroxymethyl)aminomethane-acetate buffer (pH 8.0) was added a 10% dimethyl sulfoxide solution (5 μL) of each test compound prepared, and the mixture was reacted at 37° C. for 1 hr. After the reaction, 50% trichloroacetic acid (5 μL) was added to terminate the reaction.
The resultant kynurenic acid was quantified as follows by high performance liquid chromatography. An enzyme reaction mixture was separated by an octadecylsilane reversed-phase column (SC-50DS, Eicom Corporation; mobile phase: 250 mmol/L zinc acetate, 50 mmol/L sodium acetate, and 5.0% acetonitrile (pH 6.2)) incubated at 30° C., and kynurenic acid was quantified using a fluorescence detector (RF-20Axs, Shimadzu Corporation) at excitation wavelength 354 nm, detection wavelength 460 nm. The analytical curve was drawn every time by an external standard method. Each test compound was tested by dual measurement at each concentration.

human recombinant KAT-II, sequence (Q8N5Z0 30-425): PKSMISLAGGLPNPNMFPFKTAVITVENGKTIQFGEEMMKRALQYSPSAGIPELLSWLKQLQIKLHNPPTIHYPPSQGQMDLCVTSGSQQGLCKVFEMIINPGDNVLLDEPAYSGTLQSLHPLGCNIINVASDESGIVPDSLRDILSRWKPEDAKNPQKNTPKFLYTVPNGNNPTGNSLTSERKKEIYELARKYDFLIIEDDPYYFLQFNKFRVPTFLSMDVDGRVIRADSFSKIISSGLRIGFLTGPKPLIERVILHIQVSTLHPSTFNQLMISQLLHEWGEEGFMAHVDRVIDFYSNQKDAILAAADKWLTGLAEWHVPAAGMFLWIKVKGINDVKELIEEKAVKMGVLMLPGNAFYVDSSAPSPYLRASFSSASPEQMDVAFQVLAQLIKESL

| Structure (SMILES) | IC50 |
| --- | --- |
| Cc1cc(=O)n2nc(N3C[C@@H]4C[C@@H]4[C@@H]3C(=O)NCc3ccccc3)sc2n1 (racemic) [Example 661, (1SR,2RS,5RS)-N-benzyl-3-(7-methyl-5-oxo-5H-[1,3,4]thiadiazolo[3,2-a]pyrimidin-2-yl)-3-azabicyclo[3.1.0]hexane-2-carboxamide] | 3900 nM |
| Cn1c(CN2CCOCC2)nc2sc([C@H]3CCCN3C(=O)OCc3ccccc3)nc2c1=O [Example 8, (R)-2-{6-methyl-5-[(morpholin-4-yl)methyl]-7-oxo-6,7-dihydro[1,3]thiazolo[5,4-d]pyrimidin-2-yl}pyrrolidine-1-carboxylic acid benzyl ester] | 610 nM |
| CCc1nc2sc([C@H]3CCCN3C(=O)NCc3ccccc3)nc2c(=O)n1C [Example 9, (R)-N-benzyl-2-(5-ethyl-6-methyl-7-oxo-6,7-dihydro[1,3]thiazolo[5,4-d]pyrimidin-2-yl)pyrrolidine-1-carboxamide] | 250 nM |
| CC(C)n1c(C(F)(F)F)nc2sc([C@H]3CCCN3C(=O)NCc3ccccc3Cl)nc2c1=O [Example 11, (R)-N-(2-chlorobenzyl)-2-[7-oxo-6-(propan-2-yl)-5-trifluoromethyl-6,7-dihydro[1,3]thiazolo[5,4-d]pyrimidin-2-yl]pyrrolidine-1-carboxamide] | 6200 nM |
| CCc1nc2sc([C@H]3CCCN3C(=O)NC3(c4ccccc4)CC3)nc2c(=O)n1C [Example 12, (R)-2-(5-ethyl-6-methyl-7-oxo-6,7-dihydro[1,3]thiazolo[5,4-d]pyrimidin-2-yl)-N-(1-phenylcyclopropyl)pyrrolidine-1-carboxamide] | 130 nM |
| CCc1nc2sc([C@H]3CCCN3C(=O)N[C@@H]3CCc4ccccc43)nc2c(=O)n1C [Example 13, (R)-5-ethyl-2-{1-[((R)-indan-1-yl)aminocarbonyl]pyrrolidin-2-yl}-6-methyl-6,7-dihydro[1,3]thiazolo[5,4-d]pyrimidin-7-one] | 560 nM |
| CCc1nc2sc([C@H]3CCCN3C(=O)CN3CCCc4ccccc43)nc2c(=O)n1C [Example 14, (R)-2-{1-[2-(3,4-dihydro-2H-quinolin-1-yl)acetyl]pyrrolidin-2-yl}-5-ethyl-6-methyl-6H-[1,3]thiazolo[5,4-d]pyrimidin-7-one] | 57 nM |
| CCc1nc2sc([C@H]3CCCN3C(=O)NC(C)(C)c3ccccc3)nc2c(=O)n1C [Example 15, (R)-2-(5-ethyl-6-methyl-7-oxo-6,7-dihydro[1,3]thiazolo[5,4-d]pyrimidin-2-yl)-N-(1-methyl-1-phenylethyl)pyrrolidine-1-carboxamide] | 1100 nM |
| CCc1nc2sc([C@H]3CCCN3C(=O)N[C@H](C)c3ccccc3)nc2c(=O)n1C [Example 17, (R)-2-(5-ethyl-6-methyl-7-oxo-6,7-dihydro[1,3]thiazolo[5,4-d]pyrimidin-2-yl)-N-((R)-1-phenylethyl)pyrrolidine-1-carboxamide] | 1600 nM |
| Cc1noc(-c2nc3sc([C@H]4CCCN4C(=O)Oc4ccccc4)nc3c(=O)n2C)n1 [Example 19, (R)-2-[6-methyl-5-(3-methyl-[1,2,4]oxadiazol-5-yl)-7-oxo-6,7-dihydro[1,3]thiazolo[5,4-d]pyrimidin-2-yl]pyrrolidine-1-carboxylic acid phenyl ester] | 43 nM |
| CCc1nc2sc([C@H]3CCCN3C(=O)Oc3ccccc3)nc2c(=O)n1C [Example 28, (R)-2-(5-ethyl-6-methyl-7-oxo-6,7-dihydro[1,3]thiazolo[5,4-d]pyrimidin-2-yl)pyrrolidine-1-carboxylic acid phenyl ester] | 25 nM |
| Cc1nc2sc([C@H]3CCCN3C(=O)Oc3ccccc3)nc2c(=O)n1C1CCOCC1 [Example 32, (R)-2-[5-methyl-7-oxo-6-(tetrahydro-2H-pyran-4-yl)-6,7-dihydro[1,3]thiazolo[5,4-d]pyrimidin-2-yl]pyrrolidine-1-carboxylic acid phenyl ester] | 400 nM |
| Cc1cccc(OC(=O)N2CCC[C@@H]2c2nc3c(=O)n(C)c(C4CCOCC4)nc3s2)c1 [Example 36, (R)-2-[6-methyl-7-oxo-5-(tetrahydro-2H-pyran-4-yl)-6,7-dihydro[1,3]thiazolo[5,4-d]pyrimidin-2-yl]pyrrolidine-1-carboxylic acid 3-methylphenyl ester] | 18 nM |
| CC(C)c1nc2sc([C@H]3CCCN3C(=O)Oc3ccccc3)nc2c(=O)[nH]1 [Example 63, (R)-2-[7-oxo-5-(propan-2-yl)-6,7-dihydro[1,3]thiazolo[5,4-d]pyrimidin-2-yl]pyrrolidine-1-carboxylic acid phenyl ester] | 15 nM |
| O=C(Oc1ccccc1)N1CCC[C@@H]1c1nc2c(=O)[nH]c(-c3ccccc3)nc2s1 [Example 65, (R)-2-(7-oxo-5-phenyl-6,7-dihydro[1,3]thiazolo[5,4-d]pyrimidin-2-yl)pyrrolidine-1-carboxylic acid phenyl ester] | 25 nM |
| O=C(Oc1ccccc1)N1CCC[C@@H]1c1nc2c(=O)[nH]c(-c3ccc(F)cc3F)nc2s1 [Example 67, (R)-2-[5-(2,4-difluorophenyl)-7-oxo-6,7-dihydro[1,3]thiazolo[5,4-d]pyrimidin-2-yl]pyrrolidine-1-carboxylic acid phenyl ester] | 14 nM |
| Cc1ccccc1-c1nc2sc([C@H]3CCCN3C(=O)Oc3ccccc3)nc2c(=O)[nH]1 [Example 69, (R)-2-[5-(2-methylphenyl)-7-oxo-6,7-dihydro[1,3]thiazolo[5,4-d]pyrimidin-2-yl]pyrrolidine-1-carboxylic acid phenyl ester] | 40 nM |
| O=C(Oc1ccccc1)N1CCC[C@@H]1c1nc2c(=O)[nH]c(C3CCC(F)(F)CC3)nc2s1 [Example 74, (R)-2-[5-(4,4-difluorocyclohexyl)-7-oxo-6,7-dihydro[1,3]thiazolo[5,4-d]pyrimidin-2-yl]pyrrolidine-1-carboxylic acid phenyl ester] | 84 nM |
| O=C(Oc1ccccc1)N1CCC[C@@H]1c1nc2c(=O)[nH]c(C3(CF)CC3)nc2s1 [Example 80, (R)-2-{5-[1-(fluoromethyl)cyclopropyl]-7-oxo-6,7-dihydro[1,3]thiazolo[5,4-d]pyrimidin-2-yl}pyrrolidine-1-carboxylic acid phenyl ester] | 8.6 nM |
| C[C@H](c1nc2c(=O)[nH]c(C3(Cl)CC3)nc2s1)N(C)C(=O)Oc1ccccc1 [Example 85, N-{(R)-1-[5-(1-chlorocyclopropyl)-7-oxo-6,7-dihydro[1,3]thiazolo[5,4-d]pyrimidin-2-yl]ethyl}-N-methylcarbamic acid phenyl ester] | 170 nM |
| Cc1cccc(OC(=O)N2CCC[C@@H]2c2nc3c(=O)[nH]c(C4(C#N)CC4)nc3s2)c1 [Example 94, (R)-2-[5-(1-cyanocyclopropyl)-7-oxo-6,7-dihydro[1,3]thiazolo[5,4-d]pyrimidin-2-yl]pyrrolidine-1-carboxylic acid 3-methylphenyl ester] | 6.1 nM |
| COCC1(c2nc3sc([C@H]4CCCN4C(=O)Oc4ccccc4)nc3c(=O)[nH]2)CC1 [Example 96, (R)-2-{5-[1-(methoxymethyl)cyclopropyl]-7-oxo-6,7-dihydro[1,3]thiazolo[5,4-d]pyrimidin-2-yl}pyrrolidine-1-carboxylic acid phenyl ester] | 19 nM |
| O=C(Cc1ccccc1)N1CCC[C@@H]1c1nc2c(=O)[nH]c(C3(C(F)(F)F)CC3)nc2s1 [Example 97, 2-[(R)-1-(phenylacetyl)pyrrolidin-2-yl]-5-[1-(trifluoromethyl)cyclopropyl]-6H-[1,3]thiazolo[5,4-d]pyrimidin-7-one] | 13 nM |
| Cc1cccc(CC(=O)N2CCC[C@@H]2c2nc3c(=O)[nH]c(C4(C(F)(F)F)CC4)nc3s2)c1 [Example 98, 2-{(R)-1-[2-(3-methylphenyl)acetyl]pyrrolidin-2-yl}-5-[1-(trifluoromethyl)cyclopropyl]-6H-[1,3]thiazolo[5,4-d]pyrimidin-7-one] | 37 nM |
| CC1(Oc2nc3sc([C@H]4CCCN4C(=O)Oc4ccccc4)nc3c(=O)[nH]2)CC1 [Example 104, (R)-2-[5-(1-methylcyclopropoxy)-7-oxo-6,7-dihydro[1,3]thiazolo[5,4-d]pyrimidin-2-yl]pyrrolidine-1-carboxylic acid phenyl ester] | 73 nM |
| O=C(Oc1ccccc1)N1CCC[C@@H]1c1nc2c(=O)[nH]c(OCC(F)(F)F)nc2s1 [Example 105, (R)-2-[7-oxo-5-(2,2,2-trifluoroethoxy)-6,7-dihydro[1,3]thiazolo[5,4-d]pyrimidin-2-yl]pyrrolidine-1-carboxylic acid phenyl ester] | 65 nM |
| CN(C)c1nc2sc([C@H]3CCCN3C(=O)Oc3ccccc3)nc2c(=O)[nH]1 [Example 106, (R)-2-[5-(N,N-dimethylamino)-7-oxo-6,7-dihydro[1,3]thiazolo[5,4-d]pyrimidin-2-yl]pyrrolidine-1-carboxylic acid phenyl ester] | 69 nM |
| O=C(Oc1ccccc1)N1CCC[C@@H]1c1nc2c(=O)[nH]c(N3CCCCC3)nc2s1 [Example 107, (R)-2-[7-oxo-5-(piperidin-1-yl)-6,7-dihydro[1,3]thiazolo[5,4-d]pyrimidin-2-yl]pyrrolidine-1-carboxylic acid phenyl ester] | 46 nM |
